Legend:
[1] = system: Wildtype and Sam68 knockout cells; settings: hydrogen peroxide 100 μM, 24 hours
Text: Cell death via the intrinsic pathway of apoptosis can be induced by genotoxic and oxidative stress (Roos and Kaina, 2006. Trends in molecular medicine 12, 440-450.) (Dumont et al., 1999. Oncogene 18, 747-757.).

[2] = system: NF-κB activation in Sam68 knockout fibroblast cells; assay: IL-1β induced NF-κB activation (IκBα degradation, p65 nuclear translocation); format: cell-based, mouse; settings: 100 ng/ml IL-1 beta
Method: Wild type control and Sam68 knockout fibroblast cells were treated with TNF (Recombinant human TNFα from Peprotech), and IκBα degradation and nuclear translocation of NF-κB protein were used to monitor the activation of their NF-κB pathway (IκBα antibody was from Santa Cruz Biotechnology; assessment of NF-κB nuclear translocation, cytoplasmic and nuclear extracts were prepared as described by Schreiber et al., 1989).
The Sam68 knockout fibroblast cells were treated with IL-1β (R&D Systems), another proinflammatory cytokine. […] Thus, the NF-κB activation pathway is functional in these Sam68 knockout cells, while Sam68 activity is specifically related to TNF signaling.

Row | Compound | death induction, cell morphology [1] | NF-κB activation (IκBα degradation and nuclear translocation of p65) [2]
1 | OO [hydrogen peroxide] | caused death induction in both wildtype and Sam68 knockout cells | –
2 | IL-1β: proinflammatory cytokine, recombinant human IL-1 beta (R&D Systems) | – | remained intact

Source: patent US8598137B2, “Use of SAM68 for modulating signaling through the TNF receptor” (California Institute of Technology, priority 2010, dated 2013)
